pIC50: −log10 of the molar value.
What was measured:
HCT116 MTAP null cells = assay: HCT116 MTAP null cell proliferation / viability (CellTiter-Glo, 6 days); format: cell-based; conditions: HCT116-MTAP null, 144 h, HCT116 MTAP null cells, 6 days, CellTiter-Glo; read-out: HCT-116 MTAP null IC50
How it was run: (§1)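 CellTiter-Glo luminescence, 6-day exposure, RPMI 1640 + 10% FBS. Dosing: 1:3 series (8-9 pts, top 1 or 10 μM) or 1:2 series (22 pts, top 10 or 50 μM), DMSO control. IC50 = 50% of control via curve fit.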

HCT116 WT cells = assay: HCT116 WT cell proliferation / viability (CellTiter-Glo, 6 days); format: cell-based; conditions: Homo sapiens, HCT-116, 144 h, HCT116 WT cells, 6 days, CellTiter-Glo; read-out: HCT-116 WT IC50
How it was run: as §1

Structure (SMILES)	pIC50 (HCT116 MTAP null cells)	pIC50 (HCT116 WT cells)
CC1OCc2c1c(N)nc1ccc(C(=O)N(Cc3ccc(C(F)(F)F)cn3)Cc3ncccc3F)cc21 (centres unmarked) [Example 890, 4-amino-N-((3-fluoropyridin-2-yl)methyl)-3-methyl-N-((5-(trifluoromethyl)pyridin-2-yl)methyl)-1,3-dihydrofuro[3,4-c]quinoline-8-carboxamide]	7.85	6.81
CC1OCc2c1c(N)nc1ccc(C(=O)N(Cc3ccc(C#N)cn3)C(C)C3CCOCC3)cc21 (centres unmarked) [Example 892, 4-amino-N-((5-cyanopyridin-2-yl)methyl)-3-methyl-N-(1-(tetrahydro-2H-pyran-4-yl)ethyl)-1,3-dihydrofuro[3,4-c]quinoline-8-carboxamide]	7.14	5.72
CC1OCc2c1c(N)nc1ccc(C(=O)N(Cc3ccc(C(F)(F)F)cn3)CC3CCOCC3)cc21 (centres unmarked) [Example 895, 4-amino-3-methyl-N-((tetrahydro-2H-pyran-4-yl)methyl)-N-((5-(trifluoromethyl)pyridin-2-yl)methyl)-1,3-dihydrofuro[3,4-c]quinoline-8-carboxamide]	7.29	6.26
CC1OCc2c1c(N)nc1ccc(C(=O)N(Cc3ccc(C#N)cn3)CC3CCOCC3)cc21 (centres unmarked) [Example 896, 4-amino-N-((5-cyanopyridin-2-yl)methyl)-3-methyl-N-((tetrahydro-2H-pyran-4-yl)methyl)-1,3-dihydrofuro[3,4-c]quinoline-8-carboxamide]	7.06	5.74
CC1OCc2c1c(N)nc1ccc(C(=O)N(Cc3ccc(C(F)(F)F)cn3)C3CCCC3C#N)cc21 (centres unmarked) [Example 897, 4-amino-N-(2-cyanocyclopentyl)-3-methyl-N-((5-(trifluoromethyl)pyridin-2-yl)methyl)-1,3-dihydrofuro[3,4-c]quinoline-8-carboxamide]	7.62	6.96
CC1OCc2c1c(N)nc1ccc(C(=O)N(Cc3ccc(C#N)cn3)C3CCCC3C#N)cc21 (centres unmarked) [Example 898, 4-amino-N-(2-cyanocyclopentyl)-N-((5-cyanopyridin-2-yl)methyl)-3-methyl-1,3-dihydrofuro[3,4-c]quinoline-8-carboxamide]	7.28	6.54
CC1OCc2c1c(N)nc1ccc(C(=O)N(Cc3ccc(C(F)(F)F)cn3)C3CCOC3)cc21 (centres unmarked) [Example 899, 4-amino-3-methyl-N-(tetrahydrofuran-3-yl)-N-((5-(trifluoromethyl)pyridin-2-yl)methyl)-1,3-dihydrofuro[3,4-c]quinoline-8-carboxamide]	6.89	5.01
CC1OCc2c1c(N)nc1ccc(C(=O)N(Cc3ccc(C(F)(F)F)cn3)[C@H]3[C@@H]4COC[C@@H]43)cc21 (stereo partly drawn) [Example 900, 4-amino-N-((1R,5S,6r)-3-oxabicyclo[3.1.0]hexan-6-yl)-3-methyl-N-((5-(trifluoromethyl)pyridin-2-yl)methyl)-1,3-dihydrofuro[3,4-c]quinoline-8-carboxamide]	6.54	< 5.00
CC1OCc2c1c(N)nc1ccc(C(=O)N(Cc3ccc(C(F)(F)F)cn3)C3CCOCC3C)cc21 (centres unmarked) [Example 901, 4-amino-3-methyl-N-(3-methyltetrahydro-2H-pyran-4-yl)-N-((5-(trifluoromethyl)pyridin-2-yl)methyl)-1,3-dihydrofuro[3,4-c]quinoline-8-carboxamide]	7.38	6.37
CO[C@@H]1COCC[C@H]1N(Cc1ccc(C(F)(F)F)cn1)C(=O)c1ccc2nc(N)c3c(c2c1)COC3C (stereo partly drawn) [Example 902, 4-amino-N-((3S,4R)-3-methoxytetrahydro-2H-pyran-4-yl)-3-methyl-N-((5-(trifluoromethyl)pyridin-2-yl)methyl)-1,3-dihydrofuro[3,4-c]quinoline-8-carboxamide]	7.47	6.48
CO[C@H]1COCC[C@@H]1N(Cc1ccc(C(F)(F)F)cn1)C(=O)c1ccc2nc(N)c3c(c2c1)COC3C (stereo partly drawn) [Example 903, 4-amino-N-((3R,4S)-3-methoxytetrahydro-2H-pyran-4-yl)-3-methyl-N-((5-(trifluoromethyl)pyridin-2-yl)methyl)-1,3-dihydrofuro[3,4-c]quinoline-8-carboxamide]	7.24	5.40
CC1OCc2c1c(N)nc1ccc(C(=O)N(Cc3ccc(C(F)(F)F)cn3)C3CC3C3CC3)cc21 (centres unmarked) [Example 904, N-([1,1′-bi(cyclopropan)]-2-yl)-4-amino-3-methyl-N-((5-(trifluoromethyl)pyridin-2-yl)methyl)-1,3-dihydrofuro[3,4-c]quinoline-8-carboxamide]	7.51	5.80
CC1OCc2c1c(N)nc1ccc(C(=O)N(Cc3ccc(C(F)(F)F)cn3)C3CC34CCCCC4)cc21 (centres unmarked) [Example 905, 4-amino-3-methyl-N-(spiro[2.5]octan-1-yl)-N-((5-(trifluoromethyl)pyridin-2-yl)methyl)-1,3-dihydrofuro[3,4-c]quinoline-8-carboxamide]	7.10	5.34
CCOC1CC1N(Cc1ccc(C(F)(F)F)cn1)C(=O)c1ccc2nc(N)c3c(c2c1)COC3C (centres unmarked) [Example 907, 4-amino-N-(2-ethoxycyclopropyl)-3-methyl-N-((5-(trifluoromethyl)pyridin-2-yl)methyl)-1,3-dihydrofuro[3,4-c]quinoline-8-carboxamide]	7.40	< 6.00
CC1OCc2c1c(N)nc1ccc(C(=O)N(Cc3ccc(C(F)(F)F)cn3)C3CC3(C)C)cc21 (centres unmarked) [Example 908, 4-amino-N-(2,2-dimethylcyclopropyl)-3-methyl-N-((5-(trifluoromethyl)pyridin-2-yl)methyl)-1,3-dihydrofuro[3,4-c]quinoline-8-carboxamide]	6.91	5.21
CC1OCc2c1c(N)nc1ccc(C(=O)N(Cc3ccc(C(F)(F)F)cn3)C3CC34CCCC4)cc21 (centres unmarked) [Example 909, 4-amino-3-methyl-N-(spiro[2.4]heptan-1-yl)-N-((5-(trifluoromethyl)pyridin-2-yl)methyl)-1,3-dihydrofuro[3,4-c]quinoline-8-carboxamide]	6.67	5.10
CC1OCc2c1c(N)nc1ccc(C(=O)N(Cc3ccc(C(F)(F)F)cn3)[C@H](C)c3ncccn3)cc21 (stereo partly drawn) [Example 911, 4-amino-3-methyl-N-((R)-1-(pyrimidin-2-yl)ethyl)-N-((5-(trifluoromethyl)pyridin-2-yl)methyl)-1,3-dihydrofuro[3,4-c]quinoline-8-carboxamide]	7.68	6.76
CC1OCc2c1c(N)nc1ccc(C(=O)N(Cc3ccc(C#N)cn3)CC3(C#N)CC3)cc21 (centres unmarked) [Example 913, 4-amino-N-((1-cyanocyclopropyl)methyl)-N-((5-cyanopyridin-2-yl)methyl)-3-methyl-1,3-dihydrofuro[3,4-c]quinoline-8-carboxamide]	7.31	5.77
CC1OCc2c1c(N)nc1ccc(C(=O)N(CC3=CCCOC3)Cc3ccc(C(F)(F)F)cn3)cc21 (centres unmarked) [Example 915, 4-amino-N-((5,6-dihydro-2H-pyran-3-yl)methyl)-3-methyl-N-((5-(trifluoromethyl)pyridin-2-yl)methyl)-1,3-dihydrofuro[3,4-c]quinoline-8-carboxamide]	7.54	5.38
